From patent publication US20240226066A1, “CARDIOPROTECTION BY AUTOPHAGY INDUCTION AND METABOLIC REPROGRAMMING” (UNIVERSITE PARIS-SACLAY, priority 2021, published 2024)
Read-outs that look alike come from different tables or passages of the source.

Experiments:
[1] = target: T1, hERG potassium channel (Homo sapiens, UniProt Q12809); assay: hERG channel binding assay ([3H]dofetilide displacement); settings: for inhibition at 10 µM: human, probe [3H]dofetilide
T1 construct: Eurofins
Description: The evaluation of the binding of the compounds to the human hERG potassium channel was carried out as described previously (Eurofins).
Since the blocking of the human potassium channel hERG channel may be responsible for cardiac fibrillation leading to cardiac arrest and death of the patient, the binding of the 3 molecules SG6163F, VP331 and LOPA87 to this receptor was evaluated.

[2] = system: H9C2 cells; assay: Exogenous fatty acid oxidation (XF palmitate-BSA FAO substrate with mito stress test); format: cell-based, rat; settings: fatty acids as substrate
Description: FIG. 8C: the oxidation of the exogenous fatty acids was measured simultaneously using the XF palmitate-BSA FAO substrate kit with the mito stress test on XF cells. Before starting the test, 30 μL of XF palmitate-BSA CAM or BSA control substrate were added to the appropriate wells.
The XFe96 extracellular flow analyzer (Seahorse Biosciences, North Billerica, MA, USA) was used to measure the bioenergetic function of H9C2 cardiomyocytes. The H9C2 cells were seeded at 20 000 cells per well in XF96 cell culture microplates; all the pretreatments were carried out with serum-free cell culture medium. The Agilent Seahorse XF glycolysis stress test was performed to measure glycolytic function in the H9C2 cells; the extracellular acidification rate (ECAR) was measured sequentially by 3 injections, 10 mM glucose, 2 μM oligomycin and 50 mM 2-deoxy-D-glucose (2-DG). The Agilent Seahorse XF Cell Mito stress test measured key parameters of mitochondrial function by directly measuring the oxygen consumption rate (OCR) of the H9C2 cells. […] The oxidation of the exogenous fatty acids was measured simultaneously using the XF palmitate-BSA FAO substrate kit with the mitochondrial stress test on XF cells. […]
Next, the energy metabolism was analyzed in real time using the Seahorse technology in H9C2 cells.

T1 sequence (Q12809 whole entry): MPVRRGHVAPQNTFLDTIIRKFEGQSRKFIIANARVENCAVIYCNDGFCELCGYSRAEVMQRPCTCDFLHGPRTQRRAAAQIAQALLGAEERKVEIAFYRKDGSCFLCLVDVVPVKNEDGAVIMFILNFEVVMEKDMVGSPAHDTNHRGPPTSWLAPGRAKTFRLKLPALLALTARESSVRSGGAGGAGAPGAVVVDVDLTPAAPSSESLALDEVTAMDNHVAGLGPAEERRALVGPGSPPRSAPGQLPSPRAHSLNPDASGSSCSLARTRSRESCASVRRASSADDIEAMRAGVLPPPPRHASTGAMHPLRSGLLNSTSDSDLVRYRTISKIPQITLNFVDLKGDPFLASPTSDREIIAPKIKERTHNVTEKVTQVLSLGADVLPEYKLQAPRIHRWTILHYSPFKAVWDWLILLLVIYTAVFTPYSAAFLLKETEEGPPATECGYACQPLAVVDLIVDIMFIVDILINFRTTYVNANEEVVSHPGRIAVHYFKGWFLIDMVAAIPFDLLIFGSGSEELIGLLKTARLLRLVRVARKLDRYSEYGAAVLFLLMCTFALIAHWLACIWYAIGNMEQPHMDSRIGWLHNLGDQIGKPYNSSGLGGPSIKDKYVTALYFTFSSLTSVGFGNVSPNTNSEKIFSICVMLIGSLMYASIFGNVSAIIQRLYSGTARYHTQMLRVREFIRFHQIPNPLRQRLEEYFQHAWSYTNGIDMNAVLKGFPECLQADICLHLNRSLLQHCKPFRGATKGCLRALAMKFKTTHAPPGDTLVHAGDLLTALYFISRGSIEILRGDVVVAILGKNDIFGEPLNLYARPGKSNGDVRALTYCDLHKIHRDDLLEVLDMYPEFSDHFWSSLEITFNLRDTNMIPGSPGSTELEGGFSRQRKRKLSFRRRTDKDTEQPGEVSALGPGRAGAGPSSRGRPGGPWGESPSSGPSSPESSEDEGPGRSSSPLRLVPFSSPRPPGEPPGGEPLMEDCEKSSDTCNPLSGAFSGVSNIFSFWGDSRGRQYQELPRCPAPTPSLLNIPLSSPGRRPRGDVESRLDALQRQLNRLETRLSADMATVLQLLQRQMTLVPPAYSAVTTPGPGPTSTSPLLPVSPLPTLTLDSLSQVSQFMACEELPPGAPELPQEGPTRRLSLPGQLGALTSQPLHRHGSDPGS

| SMILES | inhibition at 10 µM ([1]; inhibition of tritiated dofetilide binding, only values >50% considered effective, read-out: % inhibit 1st assay) [%] | inhibition at 10 µM ([1]; inhibition of tritiated dofetilide binding, only values >50% considered effective, read-out: % inhibit 2nd assay) [%] | inhibition at 10 µM ([1]; mean of two independent measurements, read-out: % inhibit Mean) [%] | binding to the hERG channel ([1]; inhibition of specific binding of [3H]dofetilide in vitro) | oxidative phosphorylation [2] |
| --- | --- | --- | --- | --- | --- |
| O=C1NC(c2ccccc2)=N/C1=C\c1cc2ccccc2c2ccccc12 [SG6163F] | 40.5 | 36.6 | 38.5 | negligible |  |
| C[C@H]1O[C@@H](O[C@H]2[C@@H](O)C[C@H](O[C@H]3[C@@H](O)CC(O[C@H]4CC[C@@]5(C)[C@H](CC[C@@H]6[C@@H]5C[C@@H](O)[C@]5(C)[C@@H](C7=CC(=O)OC7)CC[C@]65O)C4)O[C@@H]3C)O[C@@H]2C)C[C@H](O)[C@@H]1O (some centres unmarked) [digoxin] |  |  |  |  | improved oxidative phosphorylation |
